# From patent US20030224940A1, “Alpha-sulfin-and alpha-sulfonamino acid amide derivatives” (priority 2000, published 2003)
# Where two headings read alike, the source gives them in different places.
# Tests used:
# Phytophthora [1] = test: whole plant or invertebrate; assay type: in vivo; conditions: in Solanum lycopersicum, read-out: inhibit fungal infestation
# Phytophthora [2] = test: whole plant or invertebrate; assay type: in vivo; conditions: in Solanum tuberosum, read-out: inhibit fungal infestation
# Plasmopara viticola = conditions: read-out: inhibit fungal infestation
# Protocol: D-1: Action Against Plasmopara viticola (downy mildew) on Vines
# 5 week old grape seedlings cv. Gutedel are treated with the formulated test compound in a spray chamber. One day after application grape plants are inoculated by spraying a sporangia suspension (4×10^4 sporangia/ml) on the lower leaf side of the test plants. After an incubation period of 6 days at +21° C. and 95% r. h. in a greenhouse the disease incidence is assessed.
SMILES,melting point,inhibition at 200 ppm (Phytophthora [1]),inhibition at 200 ppm (Phytophthora [2]),inhibition at 200 ppm (Plasmopara viticola)
CCS(=O)(=O)N[C@H](C(=O)NCc1ccc(O)c(OC)c1)C(C)C,49 to 50 °C,,,
CCS(=O)(=O)N[C@H](C(=O)NCc1ccc(OCc2ccccc2)c(OC)c1)C(C)C,141 to 152 °C,,,
"CCS(=O)(=O)N[C@H](C(=O)NCc1ccc(OCC#Cc2ccc(Cl)cc2)c(OC)c1)C(C)C [Compound A1.1, (S)-N-{4-[3-(4-Chloro-phenyl)-prop-2-ynyloxy]-3-methoxy-benzyl}-2-ethanesulfonylamino-3-methyl-butyramide]",162 to 163 °C,≥ 80%,≥ 80%,≥ 80%
